# From PubChem BioAssay (NCI)
#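 How tested: cells in 96-well plates exposed to compound for 48 hours at five concentrations. TGI: concentration producing complete growth inhibition.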
# Tests used:
# Assay in all cases: NCI anticancer screen, dose series, 48 h
# SF-295 CNS = system: SF-295 CNS
# MOLT-4 leukemia = system: MOLT-4 leukemia
# OVCAR-8 ovarian = system: OVCAR-8 ovarian
# MALME-3M melanoma = system: MALME-3M melanoma
# M19-MEL melanoma = system: M19-MEL melanoma
# ACHN renal = system: ACHN renal
# SN12C renal = system: SN12C renal
# A498 renal = system: A498 renal
# A549 NSCLC = system: A549 NSCLC
# SF-539 CNS = system: SF-539 CNS
# OVCAR-3 ovarian = system: OVCAR-3 ovarian
# SNB-19 CNS = system: SNB-19 CNS
# 786-0 renal = system: 786-0 renal
# CAKI-1 renal = system: CAKI-1 renal
# SR leukemia = system: SR leukemia
# HOP-62 NSCLC = system: HOP-62 NSCLC
# DLD-1 colon = system: DLD-1 colon
# SK-OV-3 ovarian = system: SK-OV-3 ovarian
# SNB-75 CNS = system: SNB-75 CNS
# IGROV1 ovarian = system: IGROV1 ovarian
# SK-MEL-2 melanoma = system: SK-MEL-2 melanoma
# RPMI-8226 leukemia = system: RPMI-8226 leukemia
# KM12 colon = system: KM12 colon
# OVCAR-5 ovarian = system: OVCAR-5 ovarian
# NCI-H460 lung = system: NCI-H460 lung
# SNB-78 CNS = system: SNB-78 CNS
# HOP-92 NSCLC = system: HOP-92 NSCLC
# HT29 colon = system: HT29 colon
# NCI-H522 lung = system: NCI-H522 lung
# UACC-257 melanoma = system: UACC-257 melanoma
# UO-31 renal = system: UO-31 renal
# XF 498 CNS = system: XF 498 CNS
# HCT-15 colon = system: HCT-15 colon
# OVCAR-4 ovarian = system: OVCAR-4 ovarian
# HL-60(TB) leukemia = system: HL-60(TB) leukemia
# M14 melanoma = system: M14 melanoma
# SF-268 CNS = system: SF-268 CNS
# CCRF-CEM leukemia = system: CCRF-CEM leukemia
# SK-MEL-28 melanoma = system: SK-MEL-28 melanoma
# HCT-116 colon = system: HCT-116 colon
# NCI-H23 lung = system: NCI-H23 lung
# KM20L2 colon = system: KM20L2 colon
# HCC-2998 colon = system: HCC-2998 colon
# LOX IMVI melanoma = system: LOX IMVI melanoma
# COLO 205 colon = system: COLO 205 colon
# TK-10 renal = system: TK-10 renal
# LXFL 529 NSCLC = system: LXFL 529 NSCLC
# SK-MEL-5 melanoma = system: SK-MEL-5 melanoma
# DMS 273 small cell lung = system: DMS 273 small cell lung
# U251 CNS = system: U251 CNS
# NCI-H226 lung = system: NCI-H226 lung
# SW-620 colon = system: SW-620 colon
# DMS 114 small cell lung = system: DMS 114 small cell lung
# HOP-18 NSCLC = system: HOP-18 NSCLC
# UACC-62 melanoma = system: UACC-62 melanoma
# RXF 393 renal = system: RXF 393 renal
# K-562 leukemia = system: K-562 leukemia
smiles,measurement,setting,value
Cc1c(C(=O)CSc2nc3ccccc3[nH]2)c(=O)n(-c2ccccc2)n1C,TGI,SF-295 CNS,> 100 µM
same,TGI,MOLT-4 leukemia,> 100 µM
same,TGI,OVCAR-8 ovarian,> 100 µM
same,TGI,MALME-3M melanoma,> 100 µM
same,TGI,M19-MEL melanoma,> 100 µM
same,TGI,ACHN renal,> 100 µM
same,TGI,SN12C renal,> 100 µM
same,TGI,A498 renal,> 100 µM
same,TGI,A549 NSCLC,> 100 µM
same,TGI,SF-539 CNS,> 100 µM
same,TGI,OVCAR-3 ovarian,> 100 µM
same,TGI,SNB-19 CNS,> 100 µM
same,TGI,786-0 renal,> 100 µM
same,TGI,CAKI-1 renal,> 100 µM
same,TGI,SR leukemia,> 100 µM
same,TGI,HOP-62 NSCLC,> 100 µM
same,TGI,DLD-1 colon,> 100 µM
same,TGI,SK-OV-3 ovarian,> 100 µM
same,TGI,SNB-75 CNS,> 100 µM
same,TGI,IGROV1 ovarian,> 100 µM
same,TGI,SK-MEL-2 melanoma,> 100 µM
same,TGI,RPMI-8226 leukemia,> 100 µM
same,TGI,KM12 colon,> 100 µM
same,TGI,OVCAR-5 ovarian,> 100 µM
same,TGI,NCI-H460 lung,> 100 µM
same,TGI,SNB-78 CNS,> 100 µM
same,TGI,HOP-92 NSCLC,> 100 µM
same,TGI,HT29 colon,> 100 µM
same,TGI,NCI-H522 lung,> 100 µM
same,TGI,UACC-257 melanoma,> 100 µM
same,TGI,UO-31 renal,> 100 µM
same,TGI,XF 498 CNS,> 100 µM
same,TGI,HCT-15 colon,> 100 µM
same,TGI,OVCAR-4 ovarian,> 100 µM
same,TGI,HL-60(TB) leukemia,> 100 µM
same,TGI,M14 melanoma,> 100 µM
same,TGI,SF-268 CNS,> 100 µM
same,TGI,CCRF-CEM leukemia,> 100 µM
same,TGI,SK-MEL-28 melanoma,> 100 µM
same,TGI,HCT-116 colon,> 100 µM
same,TGI,NCI-H23 lung,> 100 µM
same,TGI,KM20L2 colon,> 100 µM
same,TGI,HCC-2998 colon,> 100 µM
same,TGI,LOX IMVI melanoma,> 100 µM
same,TGI,COLO 205 colon,> 100 µM
same,TGI,TK-10 renal,> 100 µM
same,TGI,LXFL 529 NSCLC,> 100 µM
same,TGI,SK-MEL-5 melanoma,> 100 µM
same,TGI,DMS 273 small cell lung,> 100 µM
same,TGI,U251 CNS,> 100 µM
same,TGI,NCI-H226 lung,> 100 µM
same,TGI,SW-620 colon,> 100 µM
C[C@@H]1C[C@]2(C[C@@H](C)C3[C@@H](CC4(C)[C@@H]5CCC6C(C)(C)OC(=O)C=C[C@]67C[C@@]5(CC[C@]34C)OO7)O2)OC1=O (some centres undefined),TGI,SF-295 CNS,> 100 µM
same,TGI,OVCAR-8 ovarian,> 100 µM
same,TGI,DMS 114 small cell lung,> 100 µM
same,TGI,MALME-3M melanoma,> 100 µM
same,TGI,ACHN renal,> 100 µM
same,TGI,SN12C renal,> 100 µM
same,TGI,A549 NSCLC,> 100 µM
same,TGI,SF-539 CNS,> 100 µM
same,TGI,OVCAR-3 ovarian,66.3 µM
same,TGI,SNB-19 CNS,> 100 µM
same,TGI,HOP-18 NSCLC,> 100 µM
same,TGI,786-0 renal,> 100 µM
same,TGI,SR leukemia,> 100 µM
same,TGI,DLD-1 colon,> 100 µM
same,TGI,SK-OV-3 ovarian,> 100 µM
same,TGI,SNB-75 CNS,56.9 µM
same,TGI,IGROV1 ovarian,> 100 µM
same,TGI,SK-MEL-2 melanoma,> 100 µM
same,TGI,RPMI-8226 leukemia,> 100 µM
same,TGI,OVCAR-5 ovarian,> 100 µM
same,TGI,NCI-H460 lung,> 100 µM
same,TGI,UACC-62 melanoma,> 100 µM
same,TGI,SNB-78 CNS,> 100 µM
same,TGI,HT29 colon,> 100 µM
same,TGI,NCI-H522 lung,90.3 µM
same,TGI,UACC-257 melanoma,> 100 µM
same,TGI,UO-31 renal,> 100 µM
same,TGI,XF 498 CNS,73.9 µM
same,TGI,RXF 393 renal,> 100 µM
same,TGI,HCT-15 colon,> 100 µM
same,TGI,OVCAR-4 ovarian,64.4 µM
same,TGI,HL-60(TB) leukemia,> 100 µM
same,TGI,M14 melanoma,> 100 µM
same,TGI,SK-MEL-28 melanoma,> 100 µM
same,TGI,HCT-116 colon,> 100 µM
same,TGI,NCI-H23 lung,> 100 µM
same,TGI,HCC-2998 colon,> 100 µM
same,TGI,K-562 leukemia,> 100 µM
same,TGI,LOX IMVI melanoma,> 100 µM
same,TGI,COLO 205 colon,> 100 µM
same,TGI,TK-10 renal,> 100 µM
same,TGI,LXFL 529 NSCLC,> 100 µM
same,TGI,SK-MEL-5 melanoma,> 100 µM
same,TGI,DMS 273 small cell lung,> 100 µM
same,TGI,U251 CNS,> 100 µM
same,TGI,NCI-H226 lung,> 100 µM
same,TGI,SW-620 colon,> 100 µM
